# How the values were obtained:
# [1] = obtained online; cited from earlier work
# [2] = Topical penetration of porcine skin, IVIS fluorescence; type: in vitro ADME; details: regardless of the microneedle treatment
# Description: Fresh full-thickness porcine skin was obtained from a local wholesaler and cut into 1 cm by 1 cm pieces. The subcutaneous fats were gently stripped from the porcine skin. Any remaining skin was kept frozen at −20° C. and used as soon as possible. A pyramidal stainless steel microneedle patch consisting of 100 needles in a 10×10 array with a height of ˜500 μm, a tip radius of 5 μm, a pitch of ˜700 μm and a base width of ˜300 μm was obtained from Micropoint Technologies Pte Ltd (Singapore). […] PcNP solution at 20 mg/mL concentration was compared against free Pc (equivalent to the concentration of Pc in PcNP at 20 mg/mL). The penetration of PcNP was tested after two durations: 10 minutes and 1 hour. The penetration was conducted with and without the help of the microneedle patch. Briefly, if required, the skin was pierced with the microneedle patch under a force of about 4 N for 10 seconds before its removal. […] The fluorescence intensity of the adsorbed Pc was measured using an IVIS SpectrumCT Pre-clinical in Vivo Imaging System (Perkin Elmer), where λex/em is 640/700-760 nm. […] To calculate the percentage of PcNP that penetrated into the skin, the intensity reading for each skin was normalized against that of PBS and PcNP positive control. In the case of free Pc penetration, this percentage was calculated by normalizing the readings against that of PBS and free Pc positive control.
# SKMEL-28 cells = assay: In vitro oxidative stress detection; type: cell-based, Human; details: positive control, 1 μM, 15 minutes
# Description: The in vitro oxidative stress was analyzed using the Image-IT® LIVE Green Reactive Oxygen Species Detection Kit from Thermo Fisher according to manufacturer's instructions. SKMEL-28 cells were seeded in a 12-well plate. PcNP was added at a final concentration of 25 μg/mL. After incubation for 12 hours, the cells were labelled with carboxy-H2DCFDA for 10 minutes and washed with PBS. The cells corresponding to the PcNP+hv treatment were irradiated with 730 nm, 0.75 W/cm^2 laser for 20 minutes. A positive control using common ROS production inducer TBHP was added to a final concentration of 1 μM and incubated for 15 minutes. After the treatment, the cell nuclei were labeled with Hoechst 33342 (1 μM). Coverslips were then washed with PBS, fixed and mounted onto microscopy glass slides for imaging by CLSM. Carboxy-H2DCFDA λex/em: 488/529 nm, Hoechst 33342 λex/em: 350/461 nm.
structure (smiles),measurement,setting,value
"CN(C)c1ccc2nc3ccc(=[N+](C)C)cc-3sc2c1 [MB, methylene blue]","singlet oxygen quantum yield ΦΔ(MB), reference value",[1],0.52
"c1ccc2c(c1)-c1nc-2nc2[nH]c(nc3nc(nc4[nH]c(n1)c1ccccc41)-c1ccccc1-3)c1ccccc21 [free Pc, Phthalocyanine]",skin penetration,[2],minimal skin penetration
"CC(C)(C)OO [TBHP, tert-Butyl hydroperoxide]",cells oxidatively stressed,SKMEL-28 cells,about 74%
